# Like-named read-outs stand apart in the source and are kept apart here.
# Test: Pharmacokinetic study in mice, plasma and brain structures, LC/MS/MS
# Type: in vivo, Swiss albino mice
# Details: Swiss albino, mouse, ip, 0.625 mg/kg i.p.
# Method: Blood samples from the Swiss albino mice were collected at 0 (pre-dose), 5, 15, 30, 60, 120, 240 and 480 min after a compound administration. The blood samples and brain structures were collected under general anesthesia induced by i.p. injection of 50 mg/kg ketamine plus 8 mg/kg xylazine. The blood samples were taken into heparinized tubes, immediately centrifuged at 1000 × g for 10 min, and plasma was collected. The plasma samples and brain structures were immediately frozen at -30°C and -80°C, respectively.
# The plasma and tissue sample pretreatment procedure involved acetonitrile precipitation. A 5 μL aliquot of the IS working solution (100 ng/mL) was added to 50 μL of the collected mouse plasma sample, which was then vortex-mixed for 10 seconds. Thereafter, 200 μL of acetonitrile was added, vortexed during 20 min, and then centrifuged (1000 × g, 10 min). The supernatant (100 μL) was then transferred to insert placed in an autosampler vial, and a 10 μL volume of this was injected onto the HPLC column. Tissue samples were thawed before use, and whole hippocampus, striatum and frontal cortex were weighted and placed in a glass mortar and pestle tissue grinder and homogenized with an appropriate amount of phosphate buffer (pH 7.4) in 1:5 ratio. Afterward, 50 μL of tissue homogenates were transferred to new Eppendorf tubes and spiked with 5 μL of the internal standard working solution. All samples were stored on ice during the preparation process. This was followed by procedures like those described above.
# The LC/ESI-MS/MS experiments were performed on an Applied Biosystems/MDS Sciex (Concord, Ontario, Canada) API 2000 triple quadrupole mass spectrometer equipped with an electrospray (ESI) ionization interface. This instrument was coupled to an Agilent 1100 (Agilent Technologies, Waldbronn, Germany) LC system. Data acquisition and processing were accomplished using Sciex Analyst 1.4.2 data collection and integration software.
# An XBridge C18 (2.1 x 30 mm, 3.5 μm) analytical column (Waters, Milford, Massachusetts, USA) was used for compound separation. The temperatures of the column thermostat and the autosampler were set at 25°C and 10°C, respectively. The mobile phase consisted of a mixture of acetonitrile with addition of 0.1% formic acid (solvent A) and water with addition of 0.1% formic acid (solvent B) and was set at a flow rate of 0.6 mL/min. Starting amount of solvent A is 10%, isocratic elution from 0 to 3 min, and then gradient up to 90% of solvent A, and maintained to 10 min, and then gradient down to 10% of solvent A, and maintained to 15 min.
# The ion source parameters were as follows: ion spray voltage: 5500 V; nebulizer gas (gas 1): 20 psi; turbo gas (gas 2): 25 psi; temperature of the heated nebulizer: 400°C; curtain gas: 40 psi; collision gas: 6 psi. Mass spectra were acquired by SRM with precursor/predominant product ion transitions for each analyte. The mass spectral Q1→Q3 transitions monitored for AZ-853, AZ-861 and for IS (nebivolol), were m/z 453.9→235.1; 504.3→285.1 and 406.2→151.1, respectively. The peak widths of precursor and product ions were set to 0.7 full width half-height. Quantification was done via peak area ratio.
# Pharmacokinetic parameters were calculated by a non-compartmental approach from the average concentration values, using Phoenix WinNonlin software (Certara, Princeton, NJ 08540 USA). First order elimination rate constant (λz) was calculated by linear regression of time versus log concentration. Next, the area under the mean serum and tissue concentration versus time curve (AUC0→t) was estimated using the log-linear trapezoidal rule (1), where Ci is the plasma concentration measured at t1.
# AUC0→t=∑i=1n((Ci+Ci+1)/2)∙(ti+1−ti). (1)
# Area under the first-moment curve (AUMC0→t) was estimated by calculation of the total area under the first-moment curve using the Eq (2), where Ci is the plasma concentration measured at t1. AUMC0→t=∑i=1n((ti∙Ci+ti+1∙Ci+1)/2)∙(ti+1−ti). […]
# [1] = hippocampus, 0.625 mg/kg, read-out: Concentration, hippocampus (individual animals)
# [2] = hippocampus, 0.625 mg/kg, read-out: Concentration, hippocampus (Mean)
# [3] = plasma, 0.625 mg/kg, read-out: Concentration, plasma (Mean)
# [4] = plasma, 0.625 mg/kg, read-out: Concentration, plasma (individual animals)
# [5] = striatum, 0.625 mg/kg, read-out: Concentration, striatum (Mean)
# [6] = striatum, 0.625 mg/kg, read-out: Concentration, striatum (individual animals)
smiles,measurement,setting,value
"Cn1c(=O)c2c(nc3n(CCCCN4CCN(c5ccccc5F)CC4)ccn23)n(C)c1=O [AZ-853, 8-(4-(4-(2-fluorophenyl)piperazin-1-yl)butyl)-1,3-dimethyl-1H-imidazo[2,1-f]purine-2,4(3H,8H)-dione]",concentration at 5 min,[1],205 ng/mL
same,concentration at 15 min,[2],271 ng/mL
same,concentration at 15 min,[1],228 ng/mL
same,concentration at 30 min,[2],125 ng/mL
same,concentration at 30 min,[1],125 ng/mL
same,concentration at 60 min,[2],44.3 ng/mL
same,concentration at 60 min,[1],38.9 ng/mL
same,concentration at 120 min,[2],12.6 ng/mL
same,concentration at 120 min,[1],14.1 ng/mL
same,concentration at 240 min,[2],8.83 ng/mL
same,concentration at 240 min,[1],9.85 ng/mL
same,concentration at 480 min,[2],2.07 ng/mL
same,Cmax,"hippocampus, 0.625 mg/kg, read-out: Cmax, hippocampus",272 ng/g
same,Tmax,"hippocampus, 0.625 mg/kg, read-out: tmax, hippocampus (converted)",15 min
same,CL/F,plasma,570 mL/min/kg
same,AUC(0-t),"plasma, read-out: AUC0→t, plasma (converted)",17.7 ng·h/mL
same,MRT,"plasma, read-out: MRT, plasma (converted)",85.8 min
same,concentration at 5 min,[3],23.1 ng/mL
same,concentration at 5 min,[4],25.4 ng/mL
same,concentration at 15 min,[3],13.4 ng/mL
same,concentration at 15 min,[4],12.2 ng/mL
same,concentration at 30 min,[3],7.76 ng/mL
same,concentration at 30 min,[4],9.11 ng/mL
same,concentration at 60 min,[3],1.78 ng/mL
same,concentration at 120 min,[3],4.08 ng/mL
same,concentration at 120 min,[4],3.22 ng/mL
same,concentration at 240 min,[3],0.38 ng/mL
same,concentration at 480 min,[3],0.29 ng/mL
same,concentration at 480 min,[4],0.25 ng/mL
same,Vd/F,"plasma, 0.625 mg/kg, plasma, read-out: Vd/F",> 67 L/kg
same,Cmax,"plasma, 0.625 mg/kg, read-out: Cmax, plasma",23.1 ± 16 ng/mL
same,Tmax,"plasma, 0.625 mg/kg, read-out: tmax, plasma",≤ 5 min
same,Kp,"striatum, ratio of AUC values, read-out: Brain structure-to-plasma concentration ratio, striatum (S/P)",19.9
same,AUC(0-t),"striatum, read-out: AUC0→t, striatum (converted)",352 ng·h/mL
same,MRT,"striatum, read-out: MRT, striatum (converted)",56.3 min
same,concentration at 5 min,[5],337 ng/mL
same,concentration at 5 min,[6],290 ng/mL
same,concentration at 15 min,[5],404 ng/mL
same,concentration at 15 min,[6],398 ng/mL
same,concentration at 30 min,[5],262 ng/mL
same,concentration at 30 min,[6],307 ng/mL
same,concentration at 60 min,[5],65.5 ng/mL
same,concentration at 60 min,[6],78.3 ng/mL
same,concentration at 120 min,[5],40.9 ng/mL
same,concentration at 120 min,[6],48.7 ng/mL
same,concentration at 240 min,[5],5.58 ng/mL
same,concentration at 480 min,[5],1.4 ng/mL
same,Cmax,"striatum, 0.625 mg/kg, read-out: Cmax, striatum",404 ng/g
same,Tmax,"striatum, 0.625 mg/kg, read-out: tmax, striatum (converted)",15 min

# — paper PMC7413516, “Antidepressant-like activity and safety profile evaluation of 1H-imidazo[2,1-f]purine-2,4(3H,8H)-dione derivatives as 5-HT1A receptor partial agonists” (PLoS ONE, 2020)
